Source: publication PMC7486940, “Pre-symptomatic Caspase-1 inhibitor delays cognitive decline in a mouse model of Alzheimer disease and aging” (Nature Communications, 2020)

Experiments:
IDE and Nep = IDE and Nep mRNA and protein levels; type: in vivo, mouse; conditions: hippocampus
Experimental: (§1) VX-765 (Adooq Bioscience, Irvine, CA, USA) was dissolved 5 mg • ml^−1 in 20% cremophor in dH2O[60] (Sigma-Aldrich, ON, Canada) and administered IPWT and J20 mice received three injections per week of either 50 mg • kg^−1 VX-765 or 20% cremophor vehicle for 4 weeks between 2 and 3 months of age. Mice were longitudinally followed starting 4 weeks after the last injection [4-week washout (WO)], then every other month at 12- and 20-week WO (6 and 8 months of age, respectively). Intermediate 8- and 16-week WO periods were also looked at with a smaller number of mice. After each WO period, animals were randomly chosen, independent of behavioural performance, for sacrifice and assigned to either histological or biochemical analysis (Fig. 2a).
Twenty to sixty micrograms of protein or 16 μl of precipitated protein from culture medium were separated on SDS-PAGE or 4–12% NuPAGE Bis-Tris gels (Invitrogen, Carlsbad, CA, USA) with MES buffer (Invitrogen) and transferred onto PVDF membranes (Bio-Rad) according to the manufacturer’s instructions. […] Protein levels were normalized to β-actin and expressed as a percentage relative to the vehicle-treated WT group, except for APP which was compared to the vehicle-treated J20 group. […]

IL-1β = IL-1β and IL-18 levels (PCR, western blot, ELISA); type: in vivo, mouse
Experimental: as §1
Twenty to sixty micrograms of protein or 16 μl of precipitated protein from culture medium were separated on SDS-PAGE or 4–12% NuPAGE Bis-Tris gels (Invitrogen, Carlsbad, CA, USA) with MES buffer (Invitrogen) and transferred onto PVDF membranes (Bio-Rad) according to the manufacturer’s instructions. Membranes were probed with the following antibodies: 1:1000 mouse anti-Aβ1-16 (6E10) (BioLegend, CA, USA), 1:2000 rabbit anti-APP C-terminus (A8717) (Sigma-Aldrich), 1:1000 rabbit anti-neprilysin (Nep, Abcam, ON, Canada), 1:500 rabbit anti-insulin degrading enzyme (IDE, Abcam), 1:3000 rabbit anti-GFAP (Dako), 1:1000 rabbit anti-IL-1β (Abcam), 1:1000 rat anti-Caspase-1 (clone 4B4.2.1, kindly provided by Genentech, San Francisco, CA, USA) and 1:1000 mouse anti-β-actin (Sigma-Aldrich). […] Signals were visualized with the ImageQuant LAS 4000 imaging system and densitometric analyses were performed with Image Gauge analysis software 3.0 (Fujifilm USA, NY, USA). Protein extracts from three independent mice in each group were run together on each blot. Protein levels were normalized to β-actin and expressed as a percentage relative to the vehicle-treated WT group, except for APP which was compared to the vehicle-treated J20 group. Representative full blots are shown in the Source data file.
ELISA samples were prepared in RIPA described above. RIPA-insoluble pellets were further extracted in 70% formic acid (FA) in dH2O. FA was evaporated in a speed vacuum, and the resulting pellet was solubilized in 200 mM Tris-HCl, pH 7.5. IL-1β and Aβ levels (which include Aβ38, Aβ40 and Aβ42) were measured using Meso Scale Discovery ELISA kits (Rockville, MD, USA). Standards and samples were prepared according to the manufacturer’s protocols and run in duplicate.
Real-time PCR experiments were performed with SYBR Green Taq Mastermix (Quanta BioSciences, MD, USA) in a real-time cycler ABI 7500 Fast Block (Applied Biosystems, CA, USA). Primer sequences are described in the supplementary material. […]

J20 mice [1] = assay: open field; type: in vivo, mouse; conditions: 50 mg/kg IP 3x/week for 1 month, 4- to 20-week WO
Experimental: as §1
(§2) Open-field and novel object recognition (NOR) were measured at all WO periods. The Barnes maze was assessed at 12- and 20-week WO. Open field: Mice were placed in an open-field chamber, composed of a plexiglass box with no ceiling and white floor, and allowed to explore for 5 min. NOR: Mice were pre-exposed to two identical objects in the open-field chamber for 5 min. Two hours after pre-exposure, mice were placed back into the chamber and exposed to one familiar object and one novel object for 5 min (test phase). Mice were exposed to a specific object only once across multiple test sessions. Barnes maze: Learning acquisition (days 1–4)—each mouse was trained to find the target and enter the escape box within 180 s. Four trials per day, ~15 min apart, were performed for 4 consecutive days. Probe (day 5)—a single, 90 s trial was performed on each mouse to measure primary latency and number of errors to reach the blocked target. Target hole location was changed between the two separate test sessions. Behavioural scoring was blinded to mouse genotype and treatment.

WT mice [2] = assay: open field; type: in vivo, mouse; conditions: 50 mg/kg IP 3x/week for 1 month
Experimental: as §1, §2

all other caspases = tested on: all other caspases; design: method as in PMID 30254377, PMID 17289835; conditions: cited from earlier work
[3] = tested on: experimental allergic encephalitis multiple sclerosis mouse model; design: method as in PMID 29895691; conditions: cited from earlier work
CD68 = CD68 immunostaining of phagocytic microglia and macrophages; type: in vivo, mouse; conditions: VX-765-treated J20; 20-week WO; no staining in any vehicle-treated J20
Experimental: as §1
Mice for immunohistochemistry were isoflurane anesthetized and perfused with ice-cold 4% paraformaldehyde in 0.1 M PBS (Sigma-Aldrich). Brains were post-fixed overnight in 10% neutral-buffered formalin (ThermoFisher Scientific, ON, Canada) and transferred to 70% ethanol for paraffin embedding and sectioning at 4 μm. Tissue slides underwent heat-induced antigen retrieval with citrate or EDTA buffer. Immunostaining was performed using the Dako Autostainer Plus slide processor and EnVision Flex system (Dako, ON, Canada). […]

J20 mice [4] = assay: novel object recognition (NOR), episodic memory; type: in vivo, mouse
Experimental: as §1, §2

WT mice [5] = assay: novel object recognition (NOR), episodic memory; type: in vivo, mouse
Experimental: as §1, §2

CCO[C@@H]1OC(=O)C[C@@H]1NC(=O)[C@@H]1CCCN1C(=O)[C@@H](NC(=O)c1ccc(N)c(Cl)c1)C(C)(C)C [VX-765, (S)-1-((S)-2-{[1-(4-amino-3-chloro-phenyl)-methanoyl]-amino}-3,3-dimethyl-butanoyl)-pyrrolidine-2-carboxylic acid ((2R,3S)-2-ethoxy-5-oxo-tetrahydro-furan-3-yl)-amide]
Nep mRNA and protein levels (IDE and Nep): remained unchanged
IDE mRNA or protein levels (IDE and Nep; WT vs vehicle- or VX-765-treated J20): did not change between WT and vehicle- or VX-765-treated J20 mice
active IL-1β levels (western blot) (IL-1β; J20 cortex, 20-week WO): normalized with VX-765 treatment at 20-week WO
Il-1β mRNA (IL-1β; J20 hippocampus, 16-week WO): normalized with VX-765 treatment at 16-week WO
cortical IL-1β levels (ELISA) (IL-1β; cortex, any WO): did not differ between groups at any WO
total protein IL-1β levels (ELISA) (IL-1β; hippocampus, 4-, 12-, or 20-week WO): did not differ between treatment groups
open field hyperactivity (distance travelled, quadrant entries) (J20 mice [1]): attenuated hyperactivity in J20 mice only at 4-week WO
open field activity (WT mice [2]; WT, all WO periods): had no effect on WT mice at any WO period
open field locomotor activity, time moving, thigmotaxis (WT mice [2]; between vehicle and VX-765 treatment): no differences in locomotor activity, time moving or thigmotaxis
specificity to Casp1 (all other caspases): specificity to Casp1 against all other caspases
inflammasome-related gene expression, axonal injury, behaviour [3]: reduce inflammasome-related gene expression, axonal injury, improve behaviour
mice with CD68 positive staining (CD68): four out of the five
delay of the onset of cognitive impairment (J20 mice [4]; J20, 50 mg/kg IP 3x/week for 1 month, pre-symptomatic): at least 5 months
NOR discrimination index (NOR impairment) (J20 mice [4]; J20, pre-symptomatic 50 mg/kg IP 3x/week for 1 month, 4-, 8-, 12-, 16- and 20-week WO, vs vehicle-treated J20): protected J20 mice against NOR impairment at all WO periods
percentage of NOR impaired mice (J20 mice [4]; VX-765-treated J20, 50 mg/kg IP 3x/week for 1 month): increased consistently between 4- and 20-week WO
NOR performance over washout (J20 mice [4]; VX-765-treated J20, 50 mg/kg IP 3x/week for 1 month, 4- vs 20-week WO): declined between 4- and 20-week WO
NOR performance (WT mice [5]; VX-765-treated WT, 6-month-old (12-week WO) vs VX-765-treated 4-month-old WT): increased
NOR performance (WT mice [5]; WT, 8-month-old (20-week WO), 50 mg/kg IP 3x/week for 1 month, vs same age vehicle-treated WT): increased
percentage of NOR impaired mice (WT mice [5]; WT, 50 mg/kg IP 3x/week for 1 month, 12- to 20-week WO): increased between 12- and 20-week WO in the vehicle-treated, but not VX-765-treated WT mice
